Assay [1] has as its target T1, human transient receptor potential ankyrin 1 (hTRPA1) (Homo sapiens, UniProt O75762).
T1 construct: gene TRPA1; entire coding region (NM_007332.2)
In words: calcium influx (FLIPR Calcium […] plate reader and Fura-2 imaging) in hTRPA1-expressing Flp-In […] cells; blocked by HC-030031, absent in parental cells. It is filed as cell-based.

Assay [2] deals with T1, human transient receptor potential ankyrin 1 (hTRPA1). Description: calcium influx (FLIPR Calcium […] plate reader and Fura-2 imaging) in hTRPA1-expressing Flp-In […] cells; blocked by HC-030031. The assay is classed as cell-based.

T1 sequence (O75762 whole entry): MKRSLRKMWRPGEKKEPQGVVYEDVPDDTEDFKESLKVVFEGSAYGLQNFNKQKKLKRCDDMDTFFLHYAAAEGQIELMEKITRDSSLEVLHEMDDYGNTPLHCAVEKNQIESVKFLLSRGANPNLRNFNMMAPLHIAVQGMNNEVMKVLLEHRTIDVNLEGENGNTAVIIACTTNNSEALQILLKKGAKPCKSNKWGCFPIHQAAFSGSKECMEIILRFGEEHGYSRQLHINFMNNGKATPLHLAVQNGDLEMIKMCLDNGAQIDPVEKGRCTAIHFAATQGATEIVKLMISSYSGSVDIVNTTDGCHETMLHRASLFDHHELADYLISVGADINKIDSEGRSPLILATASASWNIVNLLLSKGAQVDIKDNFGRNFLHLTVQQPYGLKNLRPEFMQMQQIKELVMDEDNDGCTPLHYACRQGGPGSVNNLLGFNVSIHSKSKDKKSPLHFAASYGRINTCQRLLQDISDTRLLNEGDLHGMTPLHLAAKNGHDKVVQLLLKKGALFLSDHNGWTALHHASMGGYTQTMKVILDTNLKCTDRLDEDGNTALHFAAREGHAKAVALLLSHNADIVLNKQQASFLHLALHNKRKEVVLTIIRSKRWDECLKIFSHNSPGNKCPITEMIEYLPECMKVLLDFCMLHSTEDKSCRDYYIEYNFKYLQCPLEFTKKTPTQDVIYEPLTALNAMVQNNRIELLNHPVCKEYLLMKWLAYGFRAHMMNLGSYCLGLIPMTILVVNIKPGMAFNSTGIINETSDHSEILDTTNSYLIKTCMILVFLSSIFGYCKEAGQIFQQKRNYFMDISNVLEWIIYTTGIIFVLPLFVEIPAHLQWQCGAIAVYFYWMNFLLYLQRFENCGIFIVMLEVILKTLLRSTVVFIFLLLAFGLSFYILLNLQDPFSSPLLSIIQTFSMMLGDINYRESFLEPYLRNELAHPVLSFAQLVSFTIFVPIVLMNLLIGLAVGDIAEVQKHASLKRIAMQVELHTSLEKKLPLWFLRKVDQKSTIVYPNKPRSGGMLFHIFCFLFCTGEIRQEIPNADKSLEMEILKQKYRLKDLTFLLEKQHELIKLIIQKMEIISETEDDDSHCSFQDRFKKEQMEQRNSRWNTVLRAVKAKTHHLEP

For `CC(C)=CCc1cc(/C=C/C(=O)O)cc(CC=C(C)C)c1O` [artepillin C, 3,5-diprenyl-4-hydroxycinnamic acid], the EC50 in assay [1] worked out at 1.8 µM.
Take `CC(C)=CCc1cc(/C=C/C(=O)O)ccc1OC(=O)CCc1ccccc1` [baccharin, (E)-3-prenyl-4-(2,3-dihydrocinnamoyloxy) cinnamic acid]: the EC50 in assay [2] came to 15.5 µM.

Usually EC50 stands for the concentration giving half of the maximal effect.
